ChEMBL document CHEMBL1201862, “PubChem BioAssay data set” (2004)
Several values for one entry are separate records, joined by “and”; a condition that tells them apart may be missing. Identical values can stand only once. Activity calls are given as the source filed them.

Columns and labels:
Assay type in all cases: functional
[1] = NIH-3T3 fibroblast cytotoxicity, dose response, cytotoxicity control, cell-based, fluorescence, Alamar Blue, secondary assay (AID 2327);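 further: NIH-3T3 mouse fibroblasts cultured with fluconazole at 8 µg/mL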
Protein RecA = molecular target: T1, Protein RecA (Mycobacterium tuberculosis, UniProt P9WHJ3); test: Fluorescence Cell-Free Homogeneous Dose Retest to Identify Inhibitors of RecA-Intein Splicing Activity. [Related pubchem assays (depositor defined):AID2097, AID2223, AID489010, AID492950]
T1 sequence (P9WHJ3 whole entry): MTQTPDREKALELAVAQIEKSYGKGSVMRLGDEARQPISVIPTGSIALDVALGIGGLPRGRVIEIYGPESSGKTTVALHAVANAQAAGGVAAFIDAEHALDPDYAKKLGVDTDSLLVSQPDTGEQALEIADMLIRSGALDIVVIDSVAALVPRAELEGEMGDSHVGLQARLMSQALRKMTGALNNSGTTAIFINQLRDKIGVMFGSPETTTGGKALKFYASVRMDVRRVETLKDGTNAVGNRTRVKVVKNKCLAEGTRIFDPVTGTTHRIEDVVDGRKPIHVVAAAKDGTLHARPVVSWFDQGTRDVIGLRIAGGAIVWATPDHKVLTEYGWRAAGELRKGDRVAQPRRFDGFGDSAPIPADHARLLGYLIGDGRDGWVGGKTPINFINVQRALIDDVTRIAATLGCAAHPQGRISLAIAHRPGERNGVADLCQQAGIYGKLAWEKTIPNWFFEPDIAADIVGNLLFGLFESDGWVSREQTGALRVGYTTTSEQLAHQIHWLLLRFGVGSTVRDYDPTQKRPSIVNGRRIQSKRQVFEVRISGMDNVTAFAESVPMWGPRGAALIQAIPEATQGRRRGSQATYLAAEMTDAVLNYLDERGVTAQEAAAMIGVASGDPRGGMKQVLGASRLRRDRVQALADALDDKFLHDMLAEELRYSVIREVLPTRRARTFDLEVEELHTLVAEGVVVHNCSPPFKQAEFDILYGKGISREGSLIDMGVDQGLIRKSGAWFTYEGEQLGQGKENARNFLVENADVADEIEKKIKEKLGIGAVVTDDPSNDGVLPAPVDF

[2] = molecular target: T2, Replicative DNA helicase DnaB (Mycobacterium tuberculosis, UniProt P9WMR3); test: DnaB intein splicing inhibitors, dose response, biochemical, cell-free fluorescence (AID 449749)
T2 sequence (P9WMR3 whole entry): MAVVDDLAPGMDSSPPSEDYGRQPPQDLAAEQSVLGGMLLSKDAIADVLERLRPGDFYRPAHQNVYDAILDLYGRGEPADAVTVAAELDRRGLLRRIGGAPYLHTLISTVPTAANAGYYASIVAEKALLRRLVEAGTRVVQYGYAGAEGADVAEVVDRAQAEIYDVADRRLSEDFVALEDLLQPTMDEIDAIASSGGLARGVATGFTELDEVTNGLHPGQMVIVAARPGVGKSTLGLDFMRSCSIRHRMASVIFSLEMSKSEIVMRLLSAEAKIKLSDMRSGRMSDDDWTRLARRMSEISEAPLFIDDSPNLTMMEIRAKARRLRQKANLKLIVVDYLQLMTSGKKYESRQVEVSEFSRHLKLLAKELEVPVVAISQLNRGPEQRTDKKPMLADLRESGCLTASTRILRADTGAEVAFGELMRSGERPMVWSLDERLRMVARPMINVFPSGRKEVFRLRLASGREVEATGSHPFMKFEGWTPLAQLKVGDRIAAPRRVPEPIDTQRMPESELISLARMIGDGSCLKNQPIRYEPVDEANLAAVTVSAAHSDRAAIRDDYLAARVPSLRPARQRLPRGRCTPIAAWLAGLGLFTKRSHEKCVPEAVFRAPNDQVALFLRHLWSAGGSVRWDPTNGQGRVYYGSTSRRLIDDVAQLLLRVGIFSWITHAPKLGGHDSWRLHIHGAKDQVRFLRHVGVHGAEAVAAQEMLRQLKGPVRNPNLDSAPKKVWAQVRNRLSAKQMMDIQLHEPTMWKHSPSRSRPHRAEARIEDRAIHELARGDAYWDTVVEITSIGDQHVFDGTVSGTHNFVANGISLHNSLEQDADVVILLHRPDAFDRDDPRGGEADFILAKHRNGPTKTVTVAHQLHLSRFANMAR

[3] = molecular target: T3, Apoptotic protease-activating factor 1 (Homo sapiens, UniProt O14727)
T3 sequence (O14727 whole entry): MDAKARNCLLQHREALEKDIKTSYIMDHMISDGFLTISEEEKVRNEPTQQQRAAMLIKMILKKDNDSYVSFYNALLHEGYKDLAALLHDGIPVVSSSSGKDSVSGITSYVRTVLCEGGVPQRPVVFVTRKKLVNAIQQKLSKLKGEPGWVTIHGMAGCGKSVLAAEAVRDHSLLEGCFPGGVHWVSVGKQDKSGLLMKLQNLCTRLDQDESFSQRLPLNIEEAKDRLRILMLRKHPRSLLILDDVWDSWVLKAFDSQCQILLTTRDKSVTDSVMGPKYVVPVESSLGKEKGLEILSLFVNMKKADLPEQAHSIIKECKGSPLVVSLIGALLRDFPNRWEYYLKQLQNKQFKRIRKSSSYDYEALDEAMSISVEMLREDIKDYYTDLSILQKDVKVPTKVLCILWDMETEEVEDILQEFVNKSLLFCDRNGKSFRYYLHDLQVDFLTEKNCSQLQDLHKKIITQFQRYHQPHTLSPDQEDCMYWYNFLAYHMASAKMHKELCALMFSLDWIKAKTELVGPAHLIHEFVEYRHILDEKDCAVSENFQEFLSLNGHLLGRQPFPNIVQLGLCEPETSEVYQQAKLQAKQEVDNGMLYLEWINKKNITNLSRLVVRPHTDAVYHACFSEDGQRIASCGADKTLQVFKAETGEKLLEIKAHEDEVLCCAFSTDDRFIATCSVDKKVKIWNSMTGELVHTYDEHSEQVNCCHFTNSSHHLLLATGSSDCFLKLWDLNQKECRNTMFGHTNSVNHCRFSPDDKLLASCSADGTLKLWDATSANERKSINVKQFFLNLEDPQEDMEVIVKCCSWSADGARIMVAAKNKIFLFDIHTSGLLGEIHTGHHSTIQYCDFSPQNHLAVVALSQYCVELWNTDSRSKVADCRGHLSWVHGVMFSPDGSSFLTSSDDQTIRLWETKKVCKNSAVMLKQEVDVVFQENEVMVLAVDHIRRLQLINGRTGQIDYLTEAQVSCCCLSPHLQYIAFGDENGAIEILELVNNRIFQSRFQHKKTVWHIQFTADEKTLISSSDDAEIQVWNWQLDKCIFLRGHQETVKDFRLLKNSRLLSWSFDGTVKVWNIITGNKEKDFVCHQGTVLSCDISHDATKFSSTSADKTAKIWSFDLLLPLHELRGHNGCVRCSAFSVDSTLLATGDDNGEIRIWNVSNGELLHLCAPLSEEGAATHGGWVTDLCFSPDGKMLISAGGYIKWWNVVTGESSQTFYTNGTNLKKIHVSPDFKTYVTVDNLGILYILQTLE

O=C(Nc1ccccc1Cl)/C(Cl)=C(\Cl)[S+]([O-])c1ccccc1 (centres undefined)
EC50 [1]: 3.5 µM (active)
EC50 (Protein RecA): 0.935 µM (active)
AC50 [2]: 2.7 µM (active)

Cc1cc(C)nc(/N=c2/ssnc2Cl)c1
IC50 [3]: 2.9 µM (active)

Cc1ccc(C)c(S(=O)(=O)/N=C2\C=C(NS(=O)(=O)c3ccccc3)C(=O)c3ccccc32)c1
EC50 (Protein RecA): 2.25 µM (active)
IC50 [3]: 12 µM (active)
AC50 [2]: 2.17 µM (active)

CCCCCCCCCCCCCCCCn1cc[n+](C)c1
EC50 [1]: 149 µM (active)
EC50 (Protein RecA): 9.84 µM (active) and 8.55 µM (active)
IC50 [3]: 22.2 µM (active) and 21.1 µM (active)
AC50 [2]: 3.37 µM (active) and 3.76 µM (active)

O=C(NC1(O)C(=O)c2ccccc2C1=O)c1ccccc1
EC50 (Protein RecA): 16.4 µM (active)
IC50 [3]: 3.22 µM (active)
AC50 [2]: 7.72 µM (active)
